1 compound from BindingDB's records for doi:10.1124/jpet.103.058636 (National Institutes of Health, 2004) can be followed below.

The structures appear in SMILES notation.

In this test the target is Sodium-dependent serotonin transporter (Mus musculus, UniProt Q60857).
Chain of Sodium-dependent serotonin transporter (Q60857 whole entry): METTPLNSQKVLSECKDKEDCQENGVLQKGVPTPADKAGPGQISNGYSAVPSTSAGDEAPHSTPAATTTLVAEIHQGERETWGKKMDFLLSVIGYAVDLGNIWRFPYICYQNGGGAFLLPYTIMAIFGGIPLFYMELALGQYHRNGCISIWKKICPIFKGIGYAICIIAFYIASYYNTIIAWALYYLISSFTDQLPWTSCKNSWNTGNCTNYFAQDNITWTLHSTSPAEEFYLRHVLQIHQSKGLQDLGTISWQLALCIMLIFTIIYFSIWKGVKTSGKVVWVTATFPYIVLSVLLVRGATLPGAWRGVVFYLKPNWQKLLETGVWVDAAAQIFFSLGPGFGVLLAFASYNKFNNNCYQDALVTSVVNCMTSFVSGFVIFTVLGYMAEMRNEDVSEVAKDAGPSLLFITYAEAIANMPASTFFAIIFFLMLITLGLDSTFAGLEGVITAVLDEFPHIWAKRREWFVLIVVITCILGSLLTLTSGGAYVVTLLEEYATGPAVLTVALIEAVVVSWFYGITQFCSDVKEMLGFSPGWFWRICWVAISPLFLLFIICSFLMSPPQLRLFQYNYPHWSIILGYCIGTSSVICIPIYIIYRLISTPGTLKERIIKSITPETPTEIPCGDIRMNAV

As a reminder, the Ki is a dissociation constant, usually derived from enzyme kinetics or from competition with a known ligand. Higher therefore signals a looser hold on the target. `CCNC(C)Cc1cccc(C(F)(F)F)c1` (stereo unspecified) [NSC_3337] returned a Ki of 7.05 µM.
